Results reported in BindingDB's records for patent US10870641 (Ribon Therapeutics, 2020).

Biological target: T1, Protein mono-ADP-ribosyltransferase TIPARP (Homo sapiens, UniProt Q7Z3E1)
T1 sequence (Q7Z3E1 whole entry): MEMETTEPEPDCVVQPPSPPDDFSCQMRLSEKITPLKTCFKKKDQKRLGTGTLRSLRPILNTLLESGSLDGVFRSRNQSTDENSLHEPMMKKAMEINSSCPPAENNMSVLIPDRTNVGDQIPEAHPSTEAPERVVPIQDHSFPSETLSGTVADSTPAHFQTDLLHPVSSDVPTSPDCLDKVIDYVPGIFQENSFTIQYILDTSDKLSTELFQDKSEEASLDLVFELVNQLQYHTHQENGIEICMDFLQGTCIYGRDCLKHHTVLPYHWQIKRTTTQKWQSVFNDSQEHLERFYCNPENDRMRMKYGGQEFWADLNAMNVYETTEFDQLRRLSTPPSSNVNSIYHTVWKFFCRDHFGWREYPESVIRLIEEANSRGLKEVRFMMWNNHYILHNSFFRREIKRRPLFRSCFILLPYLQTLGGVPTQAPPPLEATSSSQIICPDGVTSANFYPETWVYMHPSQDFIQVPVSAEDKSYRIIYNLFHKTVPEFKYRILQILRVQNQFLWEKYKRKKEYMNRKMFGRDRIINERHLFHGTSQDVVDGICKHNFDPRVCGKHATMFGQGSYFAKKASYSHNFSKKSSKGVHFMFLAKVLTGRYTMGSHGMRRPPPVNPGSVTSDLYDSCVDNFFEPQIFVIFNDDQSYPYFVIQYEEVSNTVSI
Assay: Enzymatic Assay
Procedure: Displacement of Probe A, a biotinylated probe binding to the TIPARP active site, was measured using a time-resolved fluorescence energy transfer (TR-FRET) assay. 20 nL of a dose response curve of each test compound was spotted in black 384-well polystyrene proxiplates (Perkin Elmer) using a Mosquito (TTP Labtech). Reactions were performed in a 8 μL volume by adding […] of TIPARP and Probe A in assay buffer (20 mM HEPES pH=8, 100 mM NaCl, 0.1% bovine serum albumin, 2 mM DTT and 0.002% Tween20), incubating with test compound at 25° C. for 30 min, then adding 2 μL of ULight-anti 6×His and LANCE Eu-W1024 labeled streptavidin (Perkin Elmer). The final concentrations of TIPARP and Probe A were 6 nM and 2 nM, respectively.

Row | Structure (SMILES) | IC50
1 | N#Cc1cnc(N2CCN(C(=O)c3cc(OC[C@@H]4c5ccccc5CN4c4cn[nH]c(=O)c4C(F)(F)F)ccn3)CC2)nc1 [US10870641, Example 64B] | > 1000 nM
2 | N#Cc1ccc(N2CCN(C(=O)/C=C/COC[C@H]3CCCN3c3cn[nH]c(=O)c3C(F)(F)F)CC2)nc1 [US10870641, Example 96B] | < 100 nM
3 | C[C@@H](CC(=O)N1CCN(c2ccc(C#N)cn2)CC1)OCCOc1cn[nH]c(=O)c1C(F)(F)F [US10870641, Example 538A] | in the range around 550 nM
